Measurements: patent publication US20240325747A1, “COMPOSITIONS AND METHODS OF A CONCOMITANT THERAPY OF ALTERNATING ELECTRIC FIELDS AND N-CADHERIN INHIBITOR” (NOVOCURE GMBH, priority 2023, published 2024)

How the values were obtained:
[1] = tested on: A2780 cells; experiment: Calcium switch assay, cell morphology (phase-contrast); format: cell-based; conditions: A2780, control and TTFields (72 h) conditions, 4 mM EGTA
Protocol: (§1) FIGS. 10A-10E show N-cadherin engagement functions upstream of AKT activation during long-term TTFields application. (FIG. 10A) H1299 cells were either left untreated or treated with TTFields (150 kHz) for 72 h. Left panel: Confocal fluorescence microscopy images of N-cadherin in control and TTFields-treated cells are shown. Blue, DAPI-stained DNA; Red, F-actin; Green, N-cadherin; Scale bars, 20 μm. Right panel: Quantification of N-cadherin expression, shown as mean±SEM. *p<0.05; unpaired t-test: N≥2. (FIGS. 10B, 10C) A2780 and H1299 cells were treated with TTFields (200 kHz and 150 kHz, respectively) for 72 h and then: left untreated (No EGTA), treated with 4 mM EGTA (EGTA), or treated with 4 mM EGTA subsequently replaced with serum-free calcium-containing medium (EGTA/Ca^+2). (FIG. 10B) Representative phase-contrast images. Scale bars, 100 μm. (FIG. 10C) Upper panels: Samples were immunoblotted for AKT, pAKT (Ser473), and GAPDH. Lower panels: Densitometric analysis (arbitrary units normalized to the expression of the housekeeping protein GAPDH), is shown as mean±SEM. *p<0.05, and *** p<0.001; one-way ANOVA followed by Tukey's post hoc test: N≥2. […]

[2] = tested on: H1299 cells; experiment: as above; format: cell-based; conditions: H1299, control and TTFields (72 h) conditions, 4 mM EGTA
Protocol: as §1

[3] = tested on: A2780 cells; experiment: Calcium switch assay, immunoblot of AKT phosphorylation (Ser473) after TTFields; format: cell-based; conditions: A2780, TTFields 200 kHz 72 h then 4 mM EGTA; compared with TTFields-treated cells under normal calcium levels
Protocol: as §1, with “GAPDH.” for “GAPDH. Lower panels: Densitometric analysis (arbitrary units normalized to the expression of the housekeeping protein GAPDH), is shown as mean±SEM. *p<0.05, and *** p<0.001; one-way ANOVA followed by Tukey's post hoc test: N≥2.”
(§2) NSCLC cells (FIGS. 4—H1299 cells) or ovarian cancer cells (FIGS. 5—A2780 cells) treated with TTFields for 72 hours were incubated with […] EGTA to disrupt cell-cell contacts. […] Relative protein densities of Akt on the Ser-473 ratio were determined. […]

[4] = tested on: H1299 cells; experiment: as above; format: cell-based; conditions: H1299, TTFields 150 kHz 72 h then 4 mM EGTA; compared with TTFields-treated cells under normal calcium levels
Protocol: as §1, with “GAPDH.” for “GAPDH. Lower panels: Densitometric analysis (arbitrary units normalized to the expression of the housekeeping protein GAPDH), is shown as mean±SEM. *p<0.05, and *** p<0.001; one-way ANOVA followed by Tukey's post hoc test: N≥2.”
as §2

[5] = tested on: tumor microenvironment; conditions: systemic ADH-1; cited from earlier work
[6] = tested on: angiogenesis; conditions: cited from earlier work

Compound | Cell morphology [1] | Cell morphology [2] | AKT phosphorylation (Ser473) [3] | AKT phosphorylation (Ser473) [4] | Tumor growth [5] | Angiogenesis [6]
O=C(O)CN(CCOCCOCCN(CC(=O)O)CC(=O)O)CC(=O)O [EGTA, ethylene glycol-bis (β-aminoethyl ether)-N,N,N′,N′-tetraacetic acid] | rounded morphology | rounded morphology | reduced phosphorylation of AKT | reduced phosphorylation of AKT |  | 
N-Ac-CHAVC-NH2 (also: cyclic, type not given here) [ADH-1, cyclic peptide N-cadherin antagonist (CHAVC] |  |  |  |  | modulate tumor growth through activation of the AKT pathway | inhibit angiogenesis
